{
  "source": "paper PMC8416565",
  "about": "(Oncotarget, 2021)",
  "molecular_target": "T1, MAP2K7 (Homo sapiens, UniProt O14733)",
  "T1 construct": "purified human MAP2K7 (Origene)",
  "T1 sequence (O14733 2-419)": "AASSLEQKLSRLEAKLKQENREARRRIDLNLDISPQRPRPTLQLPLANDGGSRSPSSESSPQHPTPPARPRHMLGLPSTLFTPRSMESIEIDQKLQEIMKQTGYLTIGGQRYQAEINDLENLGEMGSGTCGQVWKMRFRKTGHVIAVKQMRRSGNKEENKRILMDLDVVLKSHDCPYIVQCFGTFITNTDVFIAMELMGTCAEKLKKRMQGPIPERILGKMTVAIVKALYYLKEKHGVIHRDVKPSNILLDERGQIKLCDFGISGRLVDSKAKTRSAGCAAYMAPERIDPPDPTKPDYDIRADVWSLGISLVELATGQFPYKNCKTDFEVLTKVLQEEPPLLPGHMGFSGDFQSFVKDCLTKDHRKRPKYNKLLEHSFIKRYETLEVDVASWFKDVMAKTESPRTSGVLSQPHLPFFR",
  "experiment": "in vitro kinase assay (Kinase-Glo Plus / ADP-Glo), dead JNK2 substrate, 30-min preincubation",
  "type": "biochemical",
  "data": [
    {"smiles": "COc1cc(O)c2c(c1)/C=C/C[C@H](O)[C@H](O)C(=O)/C=C\\C[C@H](C)OC2=O", "note": "[5Z7O, 5Z-7-oxozeaenol]", "values": [
      {"measurement": "IC50", "result": 1200, "unit": "nM"}
    ]}
  ]
}
